Measured values as given in patent publication US11793823B2, “Compounds and pharmaceutical uses thereof” (SyneuRx International (Taiwan) Corp., priority 2020, dated 2023).
Where two headings read alike, the source gives them in different places.

Columns and labels:
[1] = target: human D-amino acid oxidase (hDAAO) (Homo sapiens (Human), UniProt P14920); assay: In vitro human D-amino acid oxidase (hDAAO) activity, D-Serine/Amplex Red fluorescence; format: biochemical; conditions: D-Serine substrate, 20 min
Sequence of human D-amino acid oxidase (hDAAO) (P14920 whole entry): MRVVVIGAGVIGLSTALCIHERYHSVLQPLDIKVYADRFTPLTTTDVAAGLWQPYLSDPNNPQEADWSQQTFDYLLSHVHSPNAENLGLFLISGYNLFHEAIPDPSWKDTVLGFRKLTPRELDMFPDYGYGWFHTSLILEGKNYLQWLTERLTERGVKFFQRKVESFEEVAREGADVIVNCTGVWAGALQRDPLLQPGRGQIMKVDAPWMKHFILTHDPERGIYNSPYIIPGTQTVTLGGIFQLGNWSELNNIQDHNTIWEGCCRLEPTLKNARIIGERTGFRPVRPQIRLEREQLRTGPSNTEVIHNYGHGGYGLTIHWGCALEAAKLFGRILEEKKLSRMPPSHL
Description: The hDAAO inhibitory activities were measured by using D-Serine as a substrate to produce H2O2. The produced H2O2 would be oxidized by peroxidase, and the produced free radicals would further react with Amplex Red reagent to emit fluorescence. The intensity of fluorescence at 590 nm would be measured to represent the activity of hDAAO. All compounds were dissolved in DMSO. Each compound was diluted with DMSO in 3-fold serial dilution to create a dose response curve. Each sample was added in triplicate, 1 µL/well, into 96-well black plates. Positive control wells were added with 1 μL of DMSO. Then 49 μL of assay buffer (100 mM Tris-HCl, pH 8.5) containing 1.2 ng/mL hDAAO, 900 nM FAD, 0.2 units/mL HRP, and 100 μM Amplex Red was added to each well of the plate using a multichannel pipette. Next, 50 μL of 100 mM D-Serine in assay buffer was added. The reaction plates were then incubated in the dark at room temperature. The fluorescence readout was detected at 0 and 20 mins by Molecular Device Gemini EM fluorescence reader using the following settings: excitation filter 530 nm, and emission filter 590 nm. The percentage of inhibition values for each well was calculated with the following equation: The percentage of inhibition=(fluorescence sample, 20 min−fluorescence sample, 0 min)/(fluorescence DMSO, 20 min−fluorescence DMSO, 0 min)×100%
The nonlinear curve fitting model in GraphPad Prism was used to calculate IC50 value for each compound.

SARS-CoV-2 3CLPro = SARS-CoV-2 3CLPro (Severe acute respiratory syndrome coronavirus 2 (2019-nCoV) (SARS-CoV-2), UniProt P0DTD1); assay: biochemical
[2] = final DMSO concentration 2%, read-out: IC50
[3] = final DMSO concentration 2%, read-out: IC50 (μg/mL) (converted)

Row | SMILES | IC50 [1] [nM] | IC50 (SARS-CoV-2 3CLPro; final DMSO concentration 0.4%, read-out: IC50) [nM] | IC50 (SARS-CoV-2 3CLPro; final DMSO concentration 0.4%, read-out: IC50 (μg/mL) (converted)) [nM] | IC50 (SARS-CoV-2 3CLPro; [2]) [nM] | IC50 (SARS-CoV-2 3CLPro; [3]) [nM]
1 | O=C(O)c1cc(O)c(O)c(OC(=O)c2cc(O)c(O)c(OC(=O)c3cc(O)c(O)c(OC(=O)c4cc(O)c(O)c(OC(=O)c5cc(O)c(O)c(OC(=O)c6ccccc6)c5)c4)c3)c2)c1 [Compound 77, 3-((3-((3-((3-((3-(benzoyloxy)-4,5-dihydroxybenzoyl)oxy)-4,5-dihydroxybenzoyl)oxy)-4,5-dihydroxybenzoyl)oxy)-4,5-dihydroxybenzoyl)oxy)-4,5-dihydroxybenzoic acid] | 72 | 4330 | 4330 |  | 
2 | O=C(CC1CCCCC1)Oc1cc(C(=O)Oc2cc(C(=O)Oc3cc(C(=O)Oc4cc(C(=O)Oc5cc(C(=O)O)cc(O)c5O)cc(O)c4O)cc(O)c3O)cc(O)c2O)cc(O)c1O [Compound 80, 3-((3-((3-((3-((3-(2-cyclohexylacetoxy)-4,5-dihydroxybenzoyl)oxy)-4,5-dihydroxybenzoyl)oxy)-4,5-dihydroxybenzoyl)oxy)-4,5-dihydroxybenzoyl)oxy)-4,5-dihydroxybenzoic acid] | 58 |  |  | > 62500 | > 62500
3 | O=C(Oc1ccccc1)c1cc(O)c(O)c(OC(=O)c2cc(O)c(O)c(OC(=O)c3cc(O)c(O)c(OC(=O)c4cc(O)c(O)c(OC(=O)c5cc(O)c(O)c(OC(=O)c6ccccc6)c5)c4)c3)c2)c1 [Compound 85, 5-((5-((5-((2,3-dihydroxy-5-(phenoxycarbonyl)phenoxy)carbonyl)-2,3-dihydroxyphenoxy)carbonyl)-2,3-dihydroxyphenoxy)carbonyl)-2,3-dihydroxyphenyl 3-(benzoyloxy)-4,5-dihydroxybenzoate] | 31 |  |  | 2370 | 2370
4 | O=C(OCc1cc(CCc2ccc(F)cc2)n[nH]1)c1cc(O)c(O)c(OC(=O)c2cc(O)c(O)c(OC(=O)c3cc(O)c(O)c(OC(=O)c4cc(O)c(O)c(OC(=O)c5cc(O)c(O)c(O)c5)c4)c3)c2)c1 [Compound 92, 5-((5-((5-((5-(((3-(4-fluorophenethyl)-1H-pyrazol-5-yl)methoxy)carbonyl)-2,3-dihydroxyphenoxy)carbonyl)-2,3-dihydroxyphenoxy)carbonyl)-2,3-dihydroxyphenoxy)carbonyl)-2,3-dihydroxyphenyl 3,4,5-trihydroxybenzoate] | 23 |  |  | 2420 | 2420
